Values after ≈ are worked out from the molar mass of the structure shown. Where two headings read alike, the source gives them in different places. Each block holds one compound with its values, some of them ahead of it.
How the values were obtained:
THP-1 cells = assay: Example D: LPS-triggered THP-1 cell death assay, acute/5-hour and chronic/48-hour; type: cell-based, Human; conditions: for Viable cell percent change, Chronic/48-hour, Mean: 10 ng/ml LPS, 0.1 μM test compound
Procedure: Compounds of the invention were tested at 0.1 μM versus AC in the LPS-triggered THP-1 cell death assay. Both acute/5-hour and chronic/48-hour phases of cell death were assessed. Compounds were screened in batches with DMSO as the negative control and AC as the high activity control.

S. cerevisiae = assay: Example I: Saccharomyces cerevisiae growth inhibition (OD 600 nm); type: cell-based; conditions: 18 hour incubation at 30° C., OD 600 nm, XLfit; for IC50: read-out: IC50, uM (50% inhibition of fungal growth); for MIC: read-out: MIC, uM (99% of inhibition of fungal growth)
Procedure: An overnight culture of S. cerevisiae was dilution in YPD broth to concentration of 40,000/ml and 150 μl/well was plated in 96 well plates. Compounds were then added to each well with concentration ranged from 4 to 50 μM as final concentration. The plates were inoculated at 30° C. overnight with shaking at 220 rpm and absorbance at 600 nm was read after 18 hour incubation.
• 1. One days prior to the inoculum preparation, pick a single colony of S. cerevisiae from the Sabouraud Dextrose Agar plate using the inoculum loop and inoculate into a 50 mL tube containing 10 ml of YPD growth medium • 2. Incubate at 30° C. with shaking at 220 rpm for 24 hours with loosen lid to allow air in and facilitates growth. • 3. Examine an aliquot of the culture under a microscope for yeast cell morphology and lack of bacterial contamination. • 4. Dilute the overnight culture with YPD medium at 1:30 dilution (70 ul to 2.1 ml) and count the number of cells as 4,230,000/ml. • 5. Mix 620 μl of 1:30 dilution and 64.4 ml YPD to make final concentration of 40,000/ml cells • 6. Plated 144 μl/well in four 96-well plates.
• 1. From 10 mM DMSO stock solutions, make serial dilutions of compounds to 0.1, 0.2, 0.3, 0.63 and 1.25 mM solutions • 2. Add 6 μl each of diluted compound solutions per well in duplicates. The final concentrations were 0, 4, 8, 12, 25 and 50 micromolar. • 3. Incubated all plates at 30 C for overnight (˜18 hours) with 220 rpm shaking. • 4. Read absorbance at OD600 for each plate on Spectra Max Plus plate reader. • 5. Calculate the % inhibition of each compound against the DMSO treated cell and plotted.

Trichophyton rubrum = assay: Example J: Trichophyton rubrum growth inhibition, scoring by eye; type: cell-based; conditions: 6 days at 30° C., tested 6 to 40 μM, read-out: MIC, μM (maximum inhibition concentration, scoring by eye)
Procedure: Trichophyton grown on two agar plates were collected by scraping into 10 ml saline and filtered through 8 μm filters. […] This experiment included some active compounds from previous experiment and added several untested compounds. […] Following table listed the maximum inhibition concentration (MIC) based on scoring by eye. Scrape frozen Trichophyton culture from ATCC vial and suspended in 100 μl PDB, and then plate on a PDA plate. Incubate plate at 30 C for 4 days. The plate was covered almost full. […] Take OD of collected solution at 520 nm and 600 nm: […] Part-II: […] Add 6 μl each of diluted compound solutions per well in triplicates. […] Wrap the plates with […] incubate all plates at 30° C. for 6 days. • Take picture of the plates on KODAK imager with 17 captures of 1.5 sec/capture for total of 25.5 second exposure.

[1] = test system: 4T1 murine breast cancer cells; assay: Example S: in vitro anticancer screen, 4T1 cells, Wst1; type: cell-based, mouse; conditions: Mus musculus, 4T1, 18 h, 18 hr, Wst1; for viability at 1 µM: read-out: 4T1 1 μM, percent of cancer cell survival relative to vehicle treated cells; for viability at 5 µM: read-out: 4T1 5 μM, percent of cancer cell survival relative to vehicle treated cells
Summary of the method: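 4T1 cells seeded at 1×10^4/well were exposed to compound at 1 μM or 5 μM for 18 hr after plating. Wst1 tetrazolium dye was then added for about 2 hr and absorbance read at 450 nm (reference 630 nm). Values are percent survival relative to vehicle-treated cells.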

[2] = test system: PC3 human prostate cancer cells; assay: Example S: in vitro anticancer screen, PC-3 cells, Wst1; type: cell-based; conditions: Homo sapiens, PC-3, approximately 20 hours, Wst1, read-out: PC-3, percent of cancer cell survival relative to vehicle treated cells
Summary of the method: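 PC-3 cells, 2×10^4 cells/well, exposed ~20 h to vehicle or compound at 0.4, 0.5 or 2.5 μM as specified per compound. Wst1 dye added for 2 h; absorbance 450 nm (reference 630 nm), triplicates. Values are percent cell survival versus vehicle-treated cells.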

[3] = test system: PC-3 prostate cancer cells; assay: Example T: sensitisation of PC-3 cells to doxorubicin, oxaliplatin, paclitaxel or vincristine, Wst1; type: cell-based, human; conditions: PC-3 cells, 72 hours; for Doxorubicin 3.5 μM: percent cell survival / Oxaliplatin 100 μM: percent cell survival / Paclitaxel 50 μM: percent cell survival / Vincristine 100 nM: percent cell survival: chemotherapy agent alone normalized to 100%
[4] = test system: Candida albicans strain 3153; assay: Example H: Candida albicans growth inhibition (OD 600 nm); type: cell-based; conditions: for MIC: Candida albicans, 3153, 24 hrs at 30° C., YPD, XLfit, read-out: MIC (uM) (99% of inhibition of fungal growth); for IC50: Candida albicans, 3153, read-out: IC50 (uM) (50% inhibition of fungal growth), 24 hrs at 30° C., YPD, XLfit
Summary of the method: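 Growth inhibition computed as % versus DMSO control from OD600 after ~24 h at 30° C. Inoculum: washed overnight YPD culture of strain 3153 at 3.5×10^4 CFU/ml in YPD; final compound concentrations 0, 5, 10, 16, 22, 30, 40 μM, duplicate wells.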

[5] = test system: Cryptococcus neoformans (serotype D); assay: Example K: Cryptococcus neoformans (serotype D) growth inhibition; type: cell-based; conditions: OD of 48 hour reading, 37° C., tested 4 to 60 μM, XLfit; for IC50: read-out: IC50 (concentration for 50% of inhibition)
Procedure: Cryptococcus neoformans (serotype D) were plated in 96 well plates with 144 μl/well of 8×10e5 CFU/ml in YM growth medium. Diluted compounds were then added to each well with concentration ranged from 4 to 60 μM as final concentration in duplicates. The plates were inoculated at 37° C. for total of 48 hours. Two readings of OD at 600 nm were measured after 30 and 48 hour treatments.
• 1. Pick a single colony of Cryptococcus from the YM agar plate using the inoculum loop and inoculate into a 125 ml flask containing 25 ml of YM growth medium. • 2. Incubate at 37° C. with shaking at 220 rpm for 24 hours with loosen lid to allow air in and facilitates growth. • 3. Examine an aliquot of the culture under a microscope for yeast cell morphology and lack of bacterial contamination. • 4. Dilute the overnight culture with YM medium at 1:100 dilution and count the number of cells as 1×10^6 cfu/ml. • 5. Make a final concentration of cells suspension at 8×10^5 cfu/ml in YM medium. • 6. Plate 144 μl/well of 8×10^5 cfu/ml cell suspension on 96-well plates. Part-II: Cryptococcus Growth Inhibition Testing with Compounds • 1. From 10 mM DMSO stock solutions, make serial dilutions of compounds to 0.1, 0.2, 0.3, 0.5, 1.0 and 1.5 mM solution. • 2. Add 6 ul each of diluted compound solutions per well in duplicates. The final concentrations were 0, 4, 8, 12, 20, 40 and 60 micromolar. • 3. Incubated all plates at 37° C. overnight (30 hours) with 150 rpm shaking. • 4. Read absorbance at OD600 for each plate. • 5. Leave plates in 37° C. incubator for another day and read absorbance at OD600 again at 48 hours to ensure the inhibitory effect of the compounds. • 6. Calculated the % inhibition and IC50 of each compound against untreated cells.

[6] = test system: Cryptococcus neoformans (serotype A); assay: Example L: Cryptococcus neoformans (serotype A) growth inhibition; type: cell-based; conditions: OD of 26 hour reading, 30° C., XLfit; for IC50: read-out: IC50, uM (concentration for 50% of inhibition)
Procedure: Cryptococcus neoformans (serotype A) were plated in 96 well plates with 144 μl/well of 5×10e5 CFU/ml in YPD growth medium. Diluted compounds were then added to each well with concentration ranged from 0.05 to 10 μM as final concentration in duplicates. The plates were inoculated at 30° C. Two readings of OD at 600 nm were measured after 18 hr and […] treatments.
C12-imidazol had relative weak activity against Cryptococcus serotype A at low concentration. Data plotted was based on 26 hour reading because 18 hour reading was too low.
• 1. Pick a single colony of Cryptococcus from the Sabouraud Dextrose agar plate using the inoculum loop and inoculate into a 125 ml flask containing 25 ml of YPD growth medium • 2. Incubate at 30° C. with shaking at 220 rpm for 24 hours with loosen lid to allow air in and facilitates growth. • 3. Examine an aliquot of the culture under a microscope for yeast cell morphology and lack of bacterial contamination. • 4. Dilute the overnight culture with YPD medium at 1:100 dilution and count the number of cells as 8×10^6 cfu/ml. • 5. Make a final concentration of cells suspension at 5×10^5 cfu/ml in YPD medium after the stock culture had been stored at 4° C. for 3 days. • 6. Plate 144 μl/well of 5×10^5 cfu/ml cell suspension on 96-well plates. Part-II: Cryptococcus Growth Inhibition Testing with Compounds • 1. From 10 mM DMSO stock solutions, make serial dilutions of compounds to 0.0013, 0.0025, 0.0125, 0.025, 0.05, 0.125 and 0.25 mM solution • 2. Add 6 ul each of diluted compound solutions per well in duplicates. The final concentrations were 0, 0.05, 0.1, 0.5, 1.0, 2.0, 5.0 and 10 micromolar. • 3. Incubated all plates at 30° C. overnight with 175 rpm shaking. • 4. Read absorbance at OD600 after 18 and 26 hours for each plate. • 5. Calculated the % inhibition and IC50 of each compound against the untreated cell.

MIC [4]: 90.6 µM (≈ 25.5 µg/mL)
IC50 [4]: 28.8 µM
IC50 (S. cerevisiae; Saccharomyces cerevisiae): 35.6 µM
MIC (S. cerevisiae; Saccharomyces cerevisiae): 50.8 µM (≈ 14.3 µg/mL)
MIC (Trichophyton rubrum; Trichophyton rubrum, 144 h): 12 µM (≈ 3.38 µg/mL)
Structure (SMILES): CCCCCCCCn1cnc2cnc3ccccc3c21 [BP, 1-Octyl-1H-imidazo[4,5-c]quinoline]
viability at 1 µM [1]: 33.6%
viability at 5 µM [1]: 23.3%
viability at 0.5 µM ([2]; 0.5 μM): 50.5%
viability at 0.5 µM ([3]; Homo sapiens, compound 0.5 μM alone, Wst1, vehicle = 100, read-out: No Chemo: percent cell survival): 50.5%
Doxorubicin 3.5 μM: percent cell survival ([3]; compound 0.5 μM + doxorubicin 3.5 μM): 79.1%
Oxaliplatin 100 μM: percent cell survival ([3]; compound 0.5 μM + oxaliplatin 100 μM): 113.6%
Paclitaxel 50 μM: percent cell survival ([3]; compound 0.5 μM + paclitaxel 50 μM): 95.1%
Vincristine 100 nM: percent cell survival ([3]; compound 0.5 μM + vincristine 100 nM): 93%

MIC, uM (99% of inhibition of fungal growth) (S. cerevisiae): 29.04 µM
IC50 (S. cerevisiae): 15.2 µM
MIC (Trichophyton rubrum): 18 µM (≈ 4.26 µg/mL)
MIC (concentration for maximum-99% of inhibition) [5]: 20.54
IC50 [5]: 1.81 µM
MIC, uM (concentration for maximum - 99% of inhibition) [6]: 10.83 µM
IC50 [6]: 3.67 µM
Structure (SMILES): CCCCCCCCCCCCn1ccnc1 [Compound C12-Im, reference compound]

Further lines, the compound ahead of its results:

Structure (SMILES): c1ccc(OCCCCCCCCNc2ccnc3ccccc23)cc1 [AN, N-(8-Phenoxyoctyl)quinolin-4-amine]
Viable cell percent change, Chronic/48-hour, Mean (THP-1 cells): 31.66%
activity relative to AC in the LPS-triggered THP-1 cell death assay, in words (THP-1 cells; 0.1 μM, 5-hour and 48-hour time points): equivalent activity to AC at both the 5-hour and 48-hour time points
IC50 (S. cerevisiae; Saccharomyces cerevisiae): 19.1 µM
MIC (S. cerevisiae; Saccharomyces cerevisiae): 24.3 µM (≈ 8.45 µg/mL)
MIC (Trichophyton rubrum; Trichophyton rubrum, 144 h): 18 µM (≈ 6.27 µg/mL)
viability at 1 µM [1]: 26.6%
viability at 5 µM [1]: 50.3%
viability at 0.4 µM ([2]; 0.4 μM): 75.9%
viability at 0.4 µM ([3]; Homo sapiens, compound 0.4 μM alone, Wst1, vehicle = 100, read-out: No Chemo: percent cell survival): 75.9%
Doxorubicin 3.5 μM: percent cell survival ([3]; compound 0.4 μM + doxorubicin 3.5 μM): 28.2%
Oxaliplatin 100 μM: percent cell survival ([3]; compound 0.4 μM + oxaliplatin 100 μM): 24.7%
Paclitaxel 50 μM: percent cell survival ([3]; compound 0.4 μM + paclitaxel 50 μM): 45.8%
Vincristine 100 nM: percent cell survival ([3]; compound 0.4 μM + vincristine 100 nM): 67.3%

Structure (SMILES): CCCCCCOC(=O)c1ccc(Nc2ccnc3ccccc23)cc1 [AP, Hexyl 4-(quinolin-4-ylamino)benzoate]
Viable cell percent change, Chronic/48-hour, Mean (THP-1 cells): 37.38%
MIC [4]: 42 µM (≈ 14.6 µg/mL)
IC50 [4]: 25 µM
IC50 (S. cerevisiae; Saccharomyces cerevisiae): 26.3 µM
MIC (S. cerevisiae; Saccharomyces cerevisiae): 46.5 µM (≈ 16.2 µg/mL)
MIC (Trichophyton rubrum; Trichophyton rubrum, 144 h): ~40 µM (≈ 13.9 µg/mL)
viability at 1 µM [1]: 110%
viability at 5 µM [1]: 246%

Structure (SMILES): CCCCCCCCCCOc1ccc(CNc2ncnc3ccccc23)cc1 [BN, N-[4-(Decyloxy)benzyl]quinazolin-4-amine]
Viable cell percent change, Chronic/48-hour, Mean (THP-1 cells): 60.91%
IC50 ([5]; Cryptococcus deneoformans): 1.03 µM
IC50 ([6]; Cryptococcus neoformans): 3.73 µM
MIC ([6]; Cryptococcus neoformans, read-out: MIC, uM (concentration for maximum - 99% of inhibition)): 56.1 µM (≈ 22 µg/mL)
